Data: patent US5166379A, “Synthesis of compounds with biological activity, and methods of use” (Harbor Branch Oceanographic Institution, Inc., priority 1990, dated 1992)
≈ marks a conversion by molar mass, not a printed value. Where “and” joins values, the source holds several entries; their conditions need not be identical. Equal entries are not always repeated. Where two headings read alike, the source gives them in different places.

Key:
[1] = tested on: murine splenocyte suspensions (BALB/c and C57BL/6J mice); assay: Mixed Lymphocyte Reaction (MLR); format: cell-based
Description: I. Mixed Lymphocyte Reaction
1. Murine splenocyte suspensions were prepared separately from BALB/c and C57BL/6J mice. […] The cell concentrations were adjusted to 2.5×10^6 cells/ml. Aliquots of each cell population were removed to separate tubes, and the remaining two cell suspensions combined to one tube.
(§1) 2. Serial, log10 dilutions of the pure compound were made in absolute ethanol, and 10 μl of each dilution was added to wells of microtiter test plates, and allowed to dry.
3. A volume of 0.2 ml of the combined splenocyte suspensions was added to triplicate test wells. Positive control wells received combined splenocyte suspensions in the absence of the test compounds. Negative control wells consisted of separate (not mixed) splenocyte suspensions cultured in the absence of the test compounds.
4. Plates were incubated in 5% CO2 at 37° C. for 86 hours.
5. A volume of 0.05 ml of ^3 H-thymidine (20 μCi/ml) was added to each well, and the plates were incubated in 5% CO2 at 37° C. for an additional 5 hours.
6. The contents of each well of the microtiter plates were harvested onto glass fiber filter strips, and the resulting filter discs placed in scintillation vials to which 2.0 ml of scintillation fluid was added.
7. The amount of incorporated ^3 H-thymidine was determined by counting the vials in a liquid scintillation counter.
8. Triplicate counts were averaged, and the data reported as a percentage of the positive control.

[2] = tested on: lymphoid cells (murine BALB/c splenocytes); assay: Lymphocyte Viability Assay (LCV); format: cell-based
Description: (§2) II. Lymphocyte Viability Assay
(§3) 1. Compounds were similarly tested in parallel with the MLR to determine their toxic effects on lymphoid cells using the lymphocyte viability assay (LCV).
as §1
(§4) 3. Murine splenocyte suspensions were prepared from BALB/c mice. […] The cell concentrations were adjusted to 2.5×10^6 cells/ml.
(§5) 4. A volume of 0.2 ml of the splenocyte suspension was added to replicate test wells. Positive control wells received splenocyte suspensions in the absence of the test compounds.
(§6) 5. Plates were incubated at 37° C. for 86 hours. At the end of the incubation period, a volume of 75 μl of a 2.0 mg/ml solution of MTT was added to each well, and the plates were returned to the incubator for an additional 5 hours.
(§7) 6. The supernatants from each microwell were then removed, and a volume of 200 μl of isopropanol was added and the contents mixed.
(§8) 7. Values were obtained by comparing the optical densities (determined at 570 and 650 nm) of wells containing the test compounds with those of wells containing cells and medium only (positive control). The results are expressed as a percentage of the positive control.
(§9) 8. Replicate counts were averaged, and the data reported as a percentage of the positive control. An LCV value of less than 60% of the positive control is an indication of cytotoxicity of the test compounds for lymphoid cells.

[3] = Lymphocyte Viability Assay (LCV); format: cell-based, murine; conditions: mouse, splenocytes, read-out: % LCV (percentage of positive control)
Description: as §2, §3, §1, §4, §5, §6, §7, §8, §9

[4] = tested on: graft vs host reaction in CB6F1 mice grafted with BALB/c splenocytes; assay: Graft vs. Host (GVHR) in vivo activity
Description: III. Graft vs. Host (GVHR) In Vivo Activity
1. Donor mice (BALB/c) were sacrificed, spleens removed, and spleen cell suspensions prepared in tissue culture medium.
2. The above splenocyte suspension was adjusted to 10.0×10^7 cells/ml.
3. Mice were treated with varying dosages of the test compound. […] Treatment consisted of intraperitoneal injections, daily for 7 days. Dosages were calculated on a mg per kg body weight basis.
4. On day 1 of the first treatment regimen, recipient mice (CB6) were injected intraperitoneally with 0.50 ml (50.0×10^6) of the donor (BALB/c) splenocyte suspension.
5. Controls consisted of the following:
POS--mice receiving BALB/c splenocytes (Positive Control)
SYN--mice receiving CB6 splenocytes (Syngeneic Control)
CYP--mice receiving Cyclophosphamide (100 mg/kg) and BALB/c splenocytes
6. At the end of five days, recipient mice were sacrificed, weighed, and spleens removed and weighed.
7. A spleen index of 1.0 was assigned to the mean spleen weights (adjusted to body weight) of the SYN controls. The spleen index of treated mice was determined by comparing the spleen weights of those mice with that of the […]. […] As a general rule, a spleen index of less than the positive control is indicative of an immunosuppressive (ID) compound.
^a CB6F1 mice (5 mice per group) were grafted with 5 ×
10^7 BALB/c spelnocytes, i.p. on Day 0. Groups were injected, ii.p.,
with drug (or vehicle) on Days 1-6. Positive designates grafted mice
receiving vehicle alone.
^b Number of surviving mice at end of experiment.
(Stimulation Index of Syngeneic group (CB6F1 ->CB6F1) = 100

P388 cells = assay: Antiproliferative effects against P388 cells (antitumor, MTT); format: cell-based; conditions: Mus musculus, P388, 48 hour exposure
Description: IV. Antitumor Methodology
To assess the antiproliferative effects against P388 cells, 200 μl cultures (96-well tissue culture plates, Nunc, Denmark) were established at 1×10^5 cells/ml in drug-free medium or medium containing the pure compounds/crude extracts at a final dilution or 1:500 and at various concentrations. Solvent for all dilutions was methanol, which was removed from plates under vacuum. All experimental cultures were initiated in media containing Gentamicin sulfate (50 μg/ml; Schering Corporation, Kenilworth, NJ).
To quantitate the effects of pure compounds/crude extracts on cell proliferation, 75 μl of warm growth medium containing 5 mg/ml MTT was added to each well, cultures were returned to the incubator, and were left undisturbed for 90 minutes. To spectrophotometrically quantitate formation of reduced formazan, plates were centrifuged (900×g, 5 minutes), culture fluids removed by aspiration, and 200 μl of acidified isopropanol (2 ml concentrated HCl/liter isopropanol) added per well. The absorbance of the resulting solutions were measured at 570 nm with a plate reader (MR700 Microplate Reader, Dynatech Laboratories, Chantilly, VA).

[5] = Mus musculus, Splenocyte, 0.05 μg/ml, read-out: % MLR (percentage of positive control)
[6] = Mus musculus, Splenocyte, 0.5 μg/ml, read-out: % MLR (percentage of positive control)
[7] = Mus musculus, Splenocyte, 5.0 μg/ml, read-out: % MLR (percentage of positive control)
[8] = Mus musculus, Splenocyte, 50 μg/ml, read-out: % MLR (percentage of positive control)

Structure (SMILES) | activity at 0.05 µg/mL [1, 5] [%] | activity at 0.5 µg/mL [1, 6] [%] | activity at 5 µg/mL [1, 7] [%] | activity at 50 µg/mL [1, 8] [%] | viability ([3]; 0.05 μg/ml) [%] | viability ([3]; 0.5 μg/ml) [%] | viability ([3]; 5.0 μg/ml) [%] | viability ([3]; 50 μg/ml) [%] | further results
C#CC(O)C=CCCCCCCCCCCCCCCCC (centres unmarked) [CH3 (CH2)15 CH=CHCOHC≡CH] | – | – | – | – | – | – | – | – | % MLR (percentage of positive control) ([1]; 0.05 μg/ml): 13%; % MLR (percentage of positive control) ([1]; 0.5 μg/ml): 0%; % MLR (percentage of positive control) ([1]; 5.0 μg/ml): 0%; % MLR (percentage of positive control) ([1]; 50 μg/ml): 0%; % LCV (percentage of positive control) ([2]; 0.05 μg/ml): 78%; % LCV (percentage of positive control) ([2]; 0.5 μg/ml): 78%; % LCV (percentage of positive control) ([2]; 5.0 μg/ml): 17%; % LCV (percentage of positive control) ([2]; 50 μg/ml): 13%
C#CC(O)C=CC=CCCCC (centres unmarked) [CH3 (CH2)3 CH=CH--CH=CH--CHOHC≡CH] | 134 | 0 | 0 | 0 | 103 | 72 | 14 | 29 | –
C#CC(O)CCCC (centres unmarked) [CH3 (CH2)3 CHOHC≡CH] | 89 | 136 | 47 | 0 | 117 | 116 | 0 | 61 | –
C#CC(=O)CCCCCCCCCCCCCCCC [CH3 (CH2)15 COC≡CH] | 114 | 7 | 0 | 0 | 91 | 89 | 47 | 34 | –
O=P1(N(CCCl)CCCl)NCCCO1 (centres unmarked) [Cyclophosphamide, reference compound] | – | – | – | – | – | – | – | – | % Suppression ([4]; 100 mg/kg, i.p.): 160% and 142% and 132%; # Mice (number of surviving mice at end of experiment) ([4]; 100 mg/kg, i.p., 5 mice per group): 5 mice; suppression of the GVHR (splenomegaly response), in words ([4]; mouse, in vivo): displayed the characteristic suppression of the splenomegaly response
C#CC(O)CCCCCCCCCCCCCCCCC (centres unmarked) [CH3 (CH2)16 CHOH--C≡CH] | 0 | – | – | 0 | 61 | – | – | 2 | activity at 0.2 µg/mL ([1]; Mus musculus, Splenocyte, 0.2 μg/ml, read-out: % MLR (percentage of positive control)): 0%; activity at 0.8 µg/mL ([1]; Mus musculus, Splenocyte, 0.8 μg/ml, read-out: % MLR (percentage of positive control)): 0%; activity at 3.1 µg/mL ([1]; Mus musculus, Splenocyte, 3.1 μg/ml, read-out: % MLR (percentage of positive control)): 0%; activity at 12.5 µg/mL ([1]; Mus musculus, Splenocyte, 12.5 μg/ml, read-out: % MLR (percentage of positive control)): 0%; viability ([3]; 0.2 μg/ml): 68%; viability ([3]; 0.8 μg/ml): 39%; viability ([3]; 3.1 μg/ml): 56%; viability ([3]; 12.5 μg/ml): 7%; IC50 (P388 cells): 48 µg/mL (≈ 163 µM)
C#CC(O)CCCCCCC (centres unmarked) [CH3 (CH2)6 CHOHC≡CH] | 117 | 130 | 131 | 108 | 72 | 85 | 70 | 61 | –
C#CC(O)CCC=CCCCCC (centres unmarked) [CH3 (CH2)4 CH=CHCH2 CH2 CHOHC≡CH] | 137 | 122 | 110 | 50 | 65 | 57 | 45 | 51 | % Suppression ([4]; 50.0 mg/kg, i.p.): 35%; Stim. Index (spleen index) ([4]; 50.0 mg/kg, i.p.): 2.09; % Suppression ([4]; 100 mg/kg, i.p.): 59%; Stim. Index (spleen index) ([4]; 100 mg/kg, i.p.): 1.69; % Suppression ([4]; 150.0 mg/kg, i.p.): 28%; Stim. Index (spleen index) ([4]; 150.0 mg/kg, i.p.): 2.21; % Suppression ([4]; 200 mg/kg, i.p.): 57%; Stim. Index (spleen index) ([4]; 200 mg/kg, i.p.): 1.72; suppression of the GVHR (splenomegaly response), in words ([4]; mouse, in vivo): demonstrated suppressive activity in the GVHR at all dosages tested; toxicity as measured by survival of treated recipients, in words ([4]; mouse, in vivo): no associated toxicity as measured by survival of treated recipients
C#CC(O)CCCCCCCCCCCCCCC (centres unmarked) [CH3 (CH2)14 CHOHC≡CH] | 100 | 0 | 0 | 0 | 105 | 47 | 36 | 10 | –
CCCCCC=CC(O)C#CCCCCCCCC (centres unmarked) [CH3 (CH2)4 CH=CH--CHOH--C≡C--(CH2)7 CH3] | – | – | – | – | – | – | – | – | % MLR (percentage of positive control) ([1]; 0.05 μg/ml): 127%; % MLR (percentage of positive control) ([1]; 0.2 μg/ml): 135%; % MLR (percentage of positive control) ([1]; 0.8 μg/ml): 122%; % MLR (percentage of positive control) ([1]; 3.1 μg/ml): 64%; % MLR (percentage of positive control) ([1]; 12.5 μg/ml): 0%; % MLR (percentage of positive control) ([1]; 50 μg/ml): 0%; % LCV (percentage of positive control) ([2]; 0.05 μg/ml): 128%; % LCV (percentage of positive control) ([2]; 0.2 μg/ml): 119%; % LCV (percentage of positive control) ([2]; 0.8 μg/ml): 105%; % LCV (percentage of positive control) ([2]; 3.1 μg/ml): 86%; % LCV (percentage of positive control) ([2]; 12.5 μg/ml): 28%; % LCV (percentage of positive control) ([2]; 50 μg/ml): 14%
C=CC(O)CCCCCCCCCCCCCCCC (centres unmarked) [CH3 (CH2)15 CHOHCH=CH2] | 99 | 74 | 0 | 0 | 80 | 80 | 2 | 5 | –
C#CC(O)CCCCCCCCCCCCCCCC (centres unmarked) [CH3 (CH2)15 CHOHC≡CH] | 0 | 0 | 0 | 0 | 49 | 22 | 24 | 22 | % Suppression ([4]; 50.0 mg/kg, i.p.): 49%; % Suppression ([4]; 100 mg/kg, i.p.): 0%; % Suppression ([4]; 150.0 mg/kg, i.p.): 4%; % Suppression ([4]; 200 mg/kg, i.p.): 0%; activity at 0.005 µg/mL ([1]; Mus musculus, Splenocyte, 0.005 μg/ml, read-out: % MLR (percentage of positive control)): 0%; viability ([3]; 0.005 μg/ml): 65%
